Results taken from PMC9728921, “Characterization of a KDM5 small molecule inhibitor with antiviral activity against hepatitis B virus” (PLOS ONE, 2022).
Entries after “also recorded” stand apart in the source; their conditions may differ.

How the values were obtained:
KDM enzymes = test: KDM enzyme panel, selectivity across KDM families; assay type: biochemical, human
Procedure: The following assay protocol was used for all histone demethylases tested except KDM1A, KDM5A, B, and D, which are described below. Compounds were serially diluted into a 384-well Alpha plate as a DMSO solution and mixed with 5 μL reaction buffer (buffer A) containing 50 mM HEPES (pH 7.0), 0.1% BSA, and 0.003% Tween-20. The enzyme of interest was pre-incubated with 15 μM of Fe^2+ for 10 min (except 30 min for KDM2B) in reaction buffer A. 5 μL of the enzyme mixture was added to each of the compound-containing wells and incubated for 10 min. […] The assay plates were read on an Enspire plate reader (PerkinElmer) using a standard AlphaLISA program.
KDM5A and 5B were tested using CisBio HTRF assay platform by Reaction Biology Corp (Malvern, PA). […] The fluorescence resonance energy transfer was measured using an excitation wavelength of 320 nm and emission wavelength of 665 nm on an Envision plate reader (Perkin Elmer). […]
The KDM1 assay was conducted in the presence of […] but without Fe(II) or ascorbic acid. […] The assay plates were read on an Enspire plate reader (PerkinElmer) using a standard AlphaLISA program.
(§1) Data was analyzed using GraphPad Prism 6.0 (La Jolla, CA). […] IC50 values were calculated as an average of at least two independent experiments.

KDM4A = KDM4A (Homo sapiens, UniProt O75164); test: KDM4A enzymatic assay (AlphaLISA); assay type: biochemical
Procedure: The following assay protocol was used for all histone demethylases tested except KDM1A, KDM5A, B, and D, which are described below. Compounds were serially diluted into a 384-well Alpha plate as a DMSO solution and mixed with 5 μL reaction buffer (buffer A) containing 50 mM HEPES (pH 7.0), 0.1% BSA, and 0.003% Tween-20. The enzyme of interest was pre-incubated with 15 μM of Fe^2+ for 10 min (except 30 min for KDM2B) in reaction buffer A. 5 μL of the enzyme mixture was added to each of the compound-containing wells and incubated for 10 min. The reaction was started by addition of a 5 μL mixture containing 300 nM peptide substrate, 75 μM L-ascorbic acid, and 30 μM α-ketoglutarate in buffer A. This final 15 μL of reaction mixture was incubated for 20 min for KDM5B and 1 hour for the other KDM enzymes. The reaction was quenched with 10 μL of diluted AlphaLISA Acceptor beads (1:400) in Epigenetics Buffer and incubated for 60 min. The Donor beads were diluted 1:400 into Epigenetics Buffer in the dark and 10 μL of this was added to each well and incubated for another 60 min in the dark. The assay plates were read on an Enspire plate reader (PerkinElmer) using a standard AlphaLISA program.
as §1

[1] = Cell-associated GS-080 exposure and half-life in PHH (LC-MS); assay type: in vitro ADME, human
Procedure: PHH were infected with HBV for three days prior to initiation of GS-5801 treatment. PHH were dosed with vehicle or 1 µM GS-5801once for three days (three day exposure; continuous dosing) or once for two hours (two hour exposure; pulse dosing). […] (C) Pharmacokinetic parameters calculated included the half-life (t1/2), maximum concentration (Cmax), and area under the curve (AUClast).

HBV (genotype C, GTC) = test: HBV mouse efficacy model (uPA-SCID mice with humanized livers), serum HBV DNA and HBsAg; assay type: in vivo; details: 30 or 100 mg/kg p.o. qd x 7d, one week on one week off, 56 days
Procedure: The in vivo and in vitro hepatocyte infection model portions of the study were performed by PhoenixBio (Higashi-Hiroshima, Japan). […] Mice were infected with HBV GTC virus (PhoenixBio; PBB004, Lot #160205) and had serum HBV titer levels greater than 1.0E+08 copies/mL seven days prior to study initiation. HBV-infected mice were treated once daily (p.o.) for seven days (Day 0–6) with deionized water for acclimation. […] Fifty μL of blood was collected from animals under isoflurane anesthesia via the retro-orbital plexus/sinus and centrifuged for serum collection for HBsAg and HBV DNA measurements described below. At termination of study (Day 56), 100–200 mg of tissue was harvested from the left lateral liver lobe of all animals.
For in vivo mouse studies, serum HBsAg concentrations were determined by SRL, Inc. (Tokyo, Japan) based on the Chemiluminescent Enzyme Immuno Assay (CLEIA) developed by Fujirebio (Lumipulse® Presto II).
HBV DNA was extracted from 5 μL of serum using the SMITEST EX-R&D Nucleic Acid Extraction Kit (Medical & Biological Laboratories, CO. LTD, Nagoya, Japan) and dissolved in 20 μL nuclease-free water (Thermo Fisher Scientific Inc., Waltham, MA). […] The average serum HBV DNA level was calculated from the values of the two separate wells. […]

[2] = assay type: in vivo, human
Text: Nevertheless, any further clinical evaluation of KMD5 inhibitors in other therapeutic areas should pay close attention to hepatotoxic effects, which might me associated with inhibition of the biologic target even at low levels of engagement.
For the clinical studies mentioned above, all patients signed an informed consent form before screening and in accordance with local regulatory and ethics committee requirements.

KDM4A, sequence (O75164 whole entry): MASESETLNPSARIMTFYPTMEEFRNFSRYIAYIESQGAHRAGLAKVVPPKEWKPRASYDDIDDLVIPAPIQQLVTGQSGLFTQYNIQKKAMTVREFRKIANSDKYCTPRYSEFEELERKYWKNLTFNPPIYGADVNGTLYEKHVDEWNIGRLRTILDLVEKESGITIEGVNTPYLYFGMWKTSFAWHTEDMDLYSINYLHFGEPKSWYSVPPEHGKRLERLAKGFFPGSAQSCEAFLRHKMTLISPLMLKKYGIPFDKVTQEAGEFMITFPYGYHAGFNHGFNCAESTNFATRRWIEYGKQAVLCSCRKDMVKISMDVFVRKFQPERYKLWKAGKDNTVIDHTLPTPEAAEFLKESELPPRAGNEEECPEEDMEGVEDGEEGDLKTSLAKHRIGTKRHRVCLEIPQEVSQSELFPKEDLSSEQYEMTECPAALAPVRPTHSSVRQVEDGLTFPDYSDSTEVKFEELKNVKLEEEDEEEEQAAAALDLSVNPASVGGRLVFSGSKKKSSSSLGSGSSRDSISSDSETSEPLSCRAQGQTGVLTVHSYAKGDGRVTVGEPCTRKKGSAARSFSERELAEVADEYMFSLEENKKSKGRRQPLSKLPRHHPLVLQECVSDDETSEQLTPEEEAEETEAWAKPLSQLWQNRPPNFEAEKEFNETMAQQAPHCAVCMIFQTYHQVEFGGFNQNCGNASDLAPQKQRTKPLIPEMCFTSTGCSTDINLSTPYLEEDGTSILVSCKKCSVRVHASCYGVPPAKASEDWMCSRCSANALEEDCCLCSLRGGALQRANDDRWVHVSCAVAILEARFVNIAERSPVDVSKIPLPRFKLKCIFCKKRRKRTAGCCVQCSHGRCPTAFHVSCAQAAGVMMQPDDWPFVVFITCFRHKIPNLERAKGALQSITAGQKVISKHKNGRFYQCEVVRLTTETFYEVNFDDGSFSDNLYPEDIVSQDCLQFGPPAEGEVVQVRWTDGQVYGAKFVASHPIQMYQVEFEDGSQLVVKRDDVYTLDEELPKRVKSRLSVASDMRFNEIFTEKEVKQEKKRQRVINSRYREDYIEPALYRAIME

CCN(CCN(C)C)C(=O)CNCc1cc(C(=O)O)ccn1 [GS-080]
fold selectivity for KDM5A and KDM5B over members of the KDM4 family (KDM enzymes; KDM4A –C): ≥ 13 fold
fold selectivity over members of the other KDM enzyme families tested (KDM enzymes; printed as from > 1,100- to > 278,000-fold, relative to KDM5A): > 1,100 fold
Fold Selectivity Compared to KDM5A (KDM4A; IC50 of KDM4A over KDM5A): 20 fold
IC50 (KDM4A; enzyme concentration 0.2 nM): 7.2 nM
cell-associated GS-080 Cmax and AUClast, pulse compared to continuous dosing ([1]; PHH dosed with 1 µM GS-5801, two-hour pulse vs three day exposure): two-fold lower Cmax and AUClast values
half-life at 1 µM ([1]; human, primary human hepatocytes (PHH), cell-associated, PHH, 1 uM, uninfected PHH): 42 to 66 h

CCOC(=O)c1ccnc(CNCC(=O)N(CC)CCN(C)C)c1 [GS-5801]
antiviral efficacy: serum HBsAg and HBV DNA (HBV (genotype C, GTC)): did not result in changes in the amounts of HBsAg or HBV DNA; also recorded: did not have antiviral activity at either dose tested
HBV antigen level decreases ([2]; HBV patients, to be published elsewhere): absence of any HBV antigen level decreases
liver toxicity ([2]; human, in vivo): dose limiting, reversible liver toxicity
